Results reported in PubChem BioAssay AID256 (DTP/NCI, 2004).
Several values for one entry are separate records, joined by “and”; a condition that tells them apart may be missing. Identical values can stand only once. Inconclusive results and toxic doses are left out. The calls were made as follows: active = survival T/C of 150% or more; inactive = T/C below 125% in these data.

Test system: CD2F1 mice, L1210 leukemia ip, survival T/C
Assay: NCI In Vivo Anticancer Drug Screen. Data for tumor model L1210 Leukemia (intraperitoneal) in CD2F1 (CDF1) mice
Conditions: higher = longer survival
Procedure, shortened: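 Each value reflects a quotient of treated over vehicle control outcomes in mice with a transplanted tumor.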

[1] = endpoint: mean survival time, dose: 100.0 mg/kg/injection, schedule: Q04DX003 (ip), vehicle: saline with Tween-80
[2] = endpoint: mean survival time, dose: 200.0 mg/kg/injection, schedule: Q04DX003 (ip), vehicle: saline with Tween-80
[3] = endpoint: mean survival time, dose: 400.0 mg/kg/injection, schedule: Q04DX003 (ip), vehicle: saline with Tween-80
[4] = endpoint: mean survival time, dose: 100.0 mg/kg/injection, schedule: Q01DX001 (ip), vehicle: saline with Tween-80
[5] = endpoint: mean survival time, dose: 200.0 mg/kg/injection, schedule: Q01DX001 (ip), vehicle: saline with Tween-80
[6] = endpoint: mean survival time, dose: 400.0 mg/kg/injection, schedule: Q01DX001 (ip), vehicle: saline with Tween-80
[7] = endpoint: mean survival time, dose: 100.0 mg/kg/injection, schedule: Q01DX009 (ip), vehicle: saline sonified
[8] = endpoint: mean survival time, dose: 200.0 mg/kg/injection, schedule: Q01DX009 (ip), vehicle: saline sonified
[9] = endpoint: mean survival time, dose: 400.0 mg/kg/injection, schedule: Q01DX009 (ip), vehicle: saline sonified
[10] = endpoint: mean survival time, dose: 100.0 mg/kg/injection, schedule: Q04DX003 (ip), vehicle: saline
[11] = endpoint: mean survival time, dose: 25.0 mg/kg/injection, schedule: Q01DX009 (ip), vehicle: saline with Tween-80
[12] = endpoint: mean survival time, dose: 100.0 mg/kg/injection, schedule: Q01DX001 (ip), vehicle: saline
[13] = endpoint: mean survival time, dose: 200.0 mg/kg/injection, schedule: Q01DX001 (ip), vehicle: saline
[14] = endpoint: mean survival time, dose: 75.0 mg/kg/injection, schedule: Q01DX001 (ip), vehicle: saline
[15] = endpoint: mean survival time, dose: 150.0 mg/kg/injection, schedule: Q01DX001 (ip), vehicle: saline
[16] = endpoint: mean survival time, dose: 300.0 mg/kg/injection, schedule: Q01DX001 (ip), vehicle: saline
[17] = endpoint: mean survival time, dose: 100.0 mg/kg/injection, schedule: Q01DX009 (ip), vehicle: saline with Tween-80
[18] = endpoint: mean survival time, dose: 200.0 mg/kg/injection, schedule: Q01DX009 (ip), vehicle: saline with Tween-80

Measured: T/C

Cn1c(=O)c(CC(O)C(Cl)(Cl)Cl)nc2ccccc21 (centres undefined)
inactive: endpoint: mean survival time, dose: 100.0 mg/kg/injection, schedule: Q04DX003 (ip), vehicle: Klucel (hydroxypropylcellulose) (HPC) 95 % of control | endpoint: mean survival time, dose: 200.0 mg/kg/injection, schedule: Q04DX003 (ip), vehicle: Klucel (hydroxypropylcellulose) (HPC) 95 % of control | endpoint: mean survival time, dose: 400.0 mg/kg/injection, schedule: Q04DX003 (ip), vehicle: Klucel (hydroxypropylcellulose) (HPC) 98 % of control

CCOC(=O)C(OCC)P(=O)(OCC)OCC (centres undefined)
inactive: endpoint: mean survival time, dose: 25.0 mg/kg/injection, schedule: Q01DX005 (ip), vehicle: water 101 % of control | endpoint: mean survival time, dose: 50.0 mg/kg/injection, schedule: Q01DX005 (ip), vehicle: water 101 % of control | endpoint: mean survival time, dose: 100.0 mg/kg/injection, schedule: Q01DX005 (ip), vehicle: water 101 % of control | endpoint: mean survival time, dose: 200.0 mg/kg/injection, schedule: Q01DX005 (ip), vehicle: water 101 % of control | endpoint: mean survival time, dose: 400.0 mg/kg/injection, schedule: Q01DX005 (ip), vehicle: water 97 % of control

O=C(CCC(NC(=O)OCc1ccccc1)C(=O)O)OCc1ccccc1 (centres undefined)
inactive: [1] 100 % of control | [2] 101 % of control | [3] 94 % of control

Cc1ccc(S(=O)(=O)Nc2ccccc2OCCOCCOc2ccccc2NS(=O)(=O)c2ccc(C)cc2)cc1
inactive: [4] 103 % of control | [5] 91 % of control | [6] 95 % of control

O=c1[nH]cccc1[N+](=O)[O-]
inactive: [1] 106 % of control | [2] 106 % of control | [3] 101 % of control

CC(N)(CC(=O)O)C(=O)O (centres undefined)
inactive: [7] 97 % of control | [1] 92 % of control | [8] 95 % of control | [2] 97 % of control | [9] 96 % of control | [3] 91 % of control

CCC1(O)C(=O)OCc2c1cc1n(c2=O)Cc2cc3ccc(CN)cc3nc2-1 (centres undefined)
inactive: endpoint: median survival time, dose: 10.0 mg/kg/injection, schedule: Q04DX002 (ip), vehicle: saline with Tween-80 109 % of control | endpoint: median survival time, dose: 10.0 mg/kg/injection, schedule: Q04DX002 (ip), vehicle: water 102 % of control | endpoint: median survival time, dose: 20.0 mg/kg/injection, schedule: Q04DX002 (ip), vehicle: saline with Tween-80 109 % of control | endpoint: median survival time, dose: 20.0 mg/kg/injection, schedule: Q04DX002 (ip), vehicle: water 102 % of control | endpoint: median survival time, dose: 40.0 mg/kg/injection, schedule: Q04DX002 (ip), vehicle: saline with Tween-80 106 % of control | endpoint: median survival time, dose: 40.0 mg/kg/injection, schedule: Q04DX002 (ip), vehicle: water 107 % of control | endpoint: median survival time, dose: 80.0 mg/kg/injection, schedule: Q04DX002 (ip), vehicle: saline with Tween-80 113 % of control | endpoint: median survival time, dose: 80.0 mg/kg/injection, schedule: Q04DX002 (ip), vehicle: water 108 % of control

CC(NC(=O)CNC(=O)OCc1ccccc1)C(=O)O (centres undefined)
inactive: [1] 98 % of control | [2] 96 % of control | [3] 93 % of control

CCCCCCCC(=O)N1CCCN(C(=O)CCCCCCC)C1
inactive: endpoint: mean survival time, dose: 25.0 mg/kg/injection, schedule: Q04DX003 (ip), vehicle: saline 94 % of control | endpoint: mean survival time, dose: 50.0 mg/kg/injection, schedule: Q04DX003 (ip), vehicle: saline 95 % of control | [10] 97 % of control

CCCCNC(C)(C)C(SSC(c1ccc(Cl)cc1)C(C)(C)NCCCC)c1ccc(Cl)cc1 (centres undefined)
inactive: endpoint: mean survival time, dose: 6.25 mg/kg/injection, schedule: Q01DX009 (ip), vehicle: saline with Tween-80 96 % of control | endpoint: mean survival time, dose: 12.5 mg/kg/injection, schedule: Q01DX009 (ip), vehicle: saline with Tween-80 98 % of control | [11] 96 % of control and 100 % of control | endpoint: mean survival time, dose: 25.0 mg/kg/injection, schedule: Q04DX003 (ip), vehicle: saline with Tween-80 90 % of control | endpoint: mean survival time, dose: 50.0 mg/kg/injection, schedule: Q04DX003 (ip), vehicle: saline with Tween-80 92 % of control | [1] 95 % of control and 96 % of control

CCCN(CCC)S(=O)(=O)c1ccc(NC(=O)Oc2ccccc2OC)cc1
inactive: [12] 95 % of control | [13] 91 % of control | endpoint: mean survival time, dose: 400.0 mg/kg/injection, schedule: Q01DX001 (ip), vehicle: saline 91 % of control

O=NN1CCCCCC1=O
inactive: [14] 108 % of control | [15] 110 % of control | [16] 120 % of control

Cc1ccc(S(=O)(=O)OC(c2ccc(C(OS(=O)(=O)c3ccc(C)cc3)(C(F)(F)F)C(F)(F)F)cc2)(C(F)(F)F)C(F)(F)F)cc1
inactive: [4] 96 % of control | [5] 95 % of control | [6] 90 % of control

COC1CC2C=C(C)/C=C/C=C/C(=O)NC(c3ccccc3)C/C=C/CCC(O)CC(=O)C2=C1O (centres undefined)
inactive: endpoint: median survival time, dose: 3.12 mg/kg/injection, schedule: Q01DX009 (ip), vehicle: Klucel (hydroxypropylcellulose) (HPC) 108 % of control | endpoint: median survival time, dose: 6.25 mg/kg/injection, schedule: Q01DX009 (ip), vehicle: Klucel (hydroxypropylcellulose) (HPC) 111 % of control | endpoint: median survival time, dose: 12.5 mg/kg/injection, schedule: Q01DX009 (ip), vehicle: Klucel (hydroxypropylcellulose) (HPC) 101 % of control

CC(C)NCCO
inactive: [14] 98 % of control | [12] 97 % of control | [15] 100 % of control | [13] 97 % of control

O=C1CCC/C1=C/c1ccco1
inactive: [11] 93 % of control | endpoint: mean survival time, dose: 50.0 mg/kg/injection, schedule: Q01DX009 (ip), vehicle: saline with Tween-80 95 % of control | [17] 86 % of control and 90 % of control

O=C(c1cccnc1)C1Cc2ccccc2C1=O (centres undefined)
inactive: [7] 102 % of control | [8] 96 % of control | [9] 94 % of control

CCC(=O)OC1=CC(=O)c2ccccc2C1=O
inactive: [14] 101 % of control | [15] 105 % of control

NC(=O)Oc1cc(OC(N)=O)cc(N(CCCl)CCCl)c1
inactive: endpoint: mean survival time, dose: 12.5 mg/kg/injection, schedule: Q01DX009 (ip), vehicle: other 103 % of control | endpoint: mean survival time, dose: 25.0 mg/kg/injection, schedule: Q01DX001 (ip), vehicle: water 98 % of control | endpoint: mean survival time, dose: 25.0 mg/kg/injection, schedule: Q01DX009 (ip), vehicle: other 114 % of control | endpoint: mean survival time, dose: 50.0 mg/kg/injection, schedule: Q01DX001 (ip), vehicle: water 108 % of control | endpoint: mean survival time, dose: 50.0 mg/kg/injection, schedule: Q01DX009 (ip), vehicle: other 111 % of control | endpoint: mean survival time, dose: 100.0 mg/kg/injection, schedule: Q01DX001 (ip), vehicle: water 108 % of control | endpoint: mean survival time, dose: 100.0 mg/kg/injection, schedule: Q01DX009 (ip), vehicle: other 116 % of control | endpoint: mean survival time, dose: 200.0 mg/kg/injection, schedule: Q01DX001 (ip), vehicle: water 117 % of control | endpoint: mean survival time, dose: 200.0 mg/kg/injection, schedule: Q01DX009 (ip), vehicle: other 104 % of control | endpoint: mean survival time, dose: 400.0 mg/kg/injection, schedule: Q01DX001 (ip), vehicle: water 120 % of control

CCC/C=C(\C#N)C(=O)OC
inactive: [14] 97 % of control

COC(=O)C(=O)O
inactive: [17] 93 % of control | [10] 95 % of control | [18] 95 % of control | endpoint: mean survival time, dose: 200.0 mg/kg/injection, schedule: Q04DX003 (ip), vehicle: saline 104 % of control | endpoint: mean survival time, dose: 400.0 mg/kg/injection, schedule: Q04DX003 (ip), vehicle: saline 93 % of control

CN(C)c1ccc(/C=C/c2ccc3ccccc3n2)c(F)c1
inactive: endpoint: mean survival time, dose: 100.0 mg/kg/injection, schedule: Q01DX009 (ip), vehicle: Klucel (hydroxypropylcellulose) (HPC) 100 % of control | endpoint: mean survival time, dose: 200.0 mg/kg/injection, schedule: Q01DX009 (ip), vehicle: Klucel (hydroxypropylcellulose) (HPC) 98 % of control | endpoint: mean survival time, dose: 400.0 mg/kg/injection, schedule: Q01DX009 (ip), vehicle: Klucel (hydroxypropylcellulose) (HPC) 89 % of control

CN(C)CC1CCCCC(Br)C1=O (centres undefined)
inactive: [14] 98 % of control | [15] 107 % of control | [16] 117 % of control

COc1cc([N+](=O)[O-])ccc1NC(=O)OC/C=C/c1ccccc1
inactive: [17] 92 % of control | [18] 91 % of control

N#CC1C(C#N)C1C#N (centres undefined)
inactive: [4] 98 % of control | [5] 98 % of control

BrC1CCCCCC12OCCO2 (centres undefined)
inactive: [1] 86 % of control | [2] 94 % of control | [3] 89 % of control

CC1(OO)OOC(=O)C1(C)C (centres undefined)
inactive: endpoint: mean survival time, dose: 6.25 mg/kg/injection, schedule: Q04DX002 (ip), vehicle: saline with Tween-80 90 % of control | endpoint: mean survival time, dose: 12.5 mg/kg/injection, schedule: Q04DX002 (ip), vehicle: saline with Tween-80 93 % of control | endpoint: mean survival time, dose: 25.0 mg/kg/injection, schedule: Q04DX002 (ip), vehicle: saline with Tween-80 96 % of control
